Source: PubChem BioAssay (NCI)
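Protocol summary: plate cells (96-well), add compound at 5 concentrations, incubate 48 h, interpolate endpoints linearly. GI50: concentration for 50% inhibition of growth. At the TGI there is no net growth.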

Assays:
Assay in all cases: NCI tumour cell line growth inhibition, 48 h
[1] = tested on: DMS 114 small cell lung
[2] = tested on: M19-MEL melanoma
[3] = tested on: DLD-1 colon
[4] = tested on: LXFL 529 NSCLC
[5] = tested on: SNB-78 CNS
[6] = tested on: HOP-18 NSCLC
[7] = tested on: XF 498 CNS
[8] = tested on: RXF-631 renal
[9] = tested on: SN12K1 renal
[10] = tested on: P388/ADR leukemia
[11] = tested on: P388 leukemia

| SMILES | TGI [1] [µM] | TGI [2] [µM] | TGI [3] [µM] | TGI [4] [µM] | TGI [5] [µM] | TGI [6] [µM] | TGI [7] [µM] | TGI [8] [µM] | GI50 [2] [µM] | GI50 [3] [µM] | GI50 [4] [µM] | GI50 [6] [µM] | GI50 [7] [µM] | TGI [9] [µM] | TGI [10] [µM] | TGI [11] [µM] |
| --- | --- | --- | --- | --- | --- | --- | --- | --- | --- | --- | --- | --- | --- | --- | --- | --- |
| CCc1nc2ccc(NCCN(C)C)c3c(=O)c4ccccc4n1c23 | 14.8 | 10.4 | 9.88 | 13.9 | 19.3 | 6.55 |  |  |  |  |  |  |  |  |  |  |
| Cc1c(/C=N/N(C)C)oc2c1cc(O)c1ncccc12 | 8.59 |  | > 100 | > 100 |  | 16 | > 100 |  |  |  |  |  |  |  |  |  |
| CN1c2ccccc2N(C(=O)c2ccccc2)C(CC(=O)O)c2cccn21 (stereo unspecified) | > 100 | > 100 |  | > 100 |  | > 100 | > 100 | > 100 |  |  |  |  |  |  |  |  |
| CCOC(=O)N(c1ccccc1)N(CC)C(=O)/C(C)=N/Nc1ccc([N+](=O)[O-])cc1 | 43.5 | 31.2 | 30.7 | 34.6 | 58.9 | 36.9 | 33.4 |  |  |  |  |  |  |  |  |  |
| O=c1[nH]cnc2c1nnn2CCCCCCCCCCCCn1nnc2c(=O)[nH]cnc21 | 39.4 | > 100 | > 100 | > 100 | 48 | > 100 |  |  |  |  |  |  |  |  |  |  |
| CC(=O)[CH-]C(=O)c1ccccc1.CC(=O)[CH-]C(=O)c1ccccc1.C[C@]12CCC(=O)C=C1CC[C@@H]1C2CC[C@@]2(C)C1CC[C@]2(C)[O-].C[C@]12CCC(=O)C=C1CC[C@@H]1C2CC[C@@]2(C)C1CC[C@]2(C)[O-].Cl.[Ti+4] (stereo partly specified) |  | > 100 | 40.9 | 76.4 |  | > 100 |  |  | 26.5 | 12.2 | 20.7 | 40 |  |  |  |  |
| Cc1cc(=O)[nH]c(NN2C(Cl)C(=O)C2c2cccc(Cl)c2)n1 (stereo unspecified) | 54.8 | > 100 |  |  | 79.3 | 55.2 |  |  |  |  |  |  |  |  |  |  |
| Nc1c(Cl)ncnc1NCCCNc1ncnc(Cl)c1N | > 100 | > 100 | > 100 | > 100 | > 100 | > 100 | > 100 |  |  |  |  |  |  |  |  |  |
| COc1cccc(/C=N/[N-]C(N)=O)c1[O-].[Cu+2].[OH3+].c1ccc(-c2ccccn2)nc1 |  |  |  |  |  |  | 19.9 |  |  |  |  |  | 7.92 |  |  |  |
| O=C(NNc1ccccc1)/C(=C/c1ccc2c(c1)OCO2)NC(=O)c1ccccc1 |  |  | > 100 | > 100 | > 100 | > 100 | > 100 |  |  |  |  |  |  |  |  |  |
| O=C1Nc2ccccc2Nc2ccncc21 | > 100 | > 100 | > 100 |  | > 100 | > 100 |  |  |  |  |  |  |  | > 100 | > 31.6 | > 100 |
| CC(=O)NC(CC(C)C)C(=O)NC(Cc1ccccc1)C(=S)N1CCCC1 (stereo unspecified) | > 100 | > 100 |  | > 100 |  |  | > 100 | > 100 |  |  |  |  |  |  |  |  |
| O=C1C(CN2CCOCC2)CCCC1CN1CCOCC1 (stereo unspecified) | 11.4 | 17.3 | 1.83 | 2.96 | 5.02 | 3.2 |  | 30.4 |  |  |  |  |  |  |  |  |
| O=P(O)(O)C1(P(=O)(O)O)CC1 | > 100 | > 100 |  | > 100 | > 100 |  | > 100 |  |  |  |  |  |  |  |  |  |
